Results on one compound are retold here after publication PMC9664868, “Dephospho-Coenzyme A Kinase Is an Exploitable Drug Target against Plasmodium falciparum: Identification of Selective Inhibitors by High-Throughput Screening of a Large Chemical Compound Library” (Antimicrobial Agents and Chemotherapy, 2022).

Molecules are shown by their SMILES. “Also recorded” adds a separate entry of the source.

Assay [1] deals with P. falciparum drug-resistant Dd2 strain. The experiment in a line: Erythrocytic-stage parasite growth inhibition, diaphorase-coupled LDH assay, Dd2. It is filed as cell-based, Plasmodium falciparum. As to conditions: Plasmodium falciparum, DD2; Table S1; means ± SEM; read-out: IC50 (μM) Pf cell Dd2. Here is the method:
(§1) Selected hit compounds were also tested against erythrocytic-stage parasites of P. falciparum drug-sensitive 3D7 and drug-resistant Dd2 strains ([39]). For the phenotypic assay, parasite cultures were synchronized with 5% (wt/vol) D-sorbitol as previously described ([40]). A synchronized culture containing ring-stage parasites of 0.3% parasitemia was initiated with a culture volume of 25 μL/well on a 384-well plate. A series of diluted compounds (at final concentrations of 50, 10, 2, 0.4, and 0.08 μM) were used to calculate IC50 values. Mefloquine at 50 μM and atovaquone at 20 μM were used as no-growth control (100% inhibition). After 72 h of incubation, parasite growth was measured by diaphorase-coupled lactate dehydrogenase (LDH) assay as previously described ([41]). Absorbance at 650 nm was measured using SpectraMax Paradigm multimode microplate reader (Molecular Devices, San Jose, CA, USA). The IC50 values were calculated as described above.

For assay [2], the target named is T1, PfDPCK (Plasmodium falciparum, UniProt Q8IL34). The experiment in a line: Mechanism of PfDPCK inhibition by Lineweaver-Burk plot. It is filed as biochemical. How it is done:
In order to understand the mechanism of PfDPCK inhibition of the identified compounds, we independently selected compounds from 359 PfDPCK-specific inhibitor candidates (showing >40% inhibition at 10 μM against PfDPCK), based on the more stringent criteria of >80% inhibition at 10 μM against PfDPCK and <10% inhibition against HsCOASY, to yield 30 hits. The hits were prioritized using a multiparameter optimization (MPO) scoring model, developed by MMV (https://www.optibrium.com/downloads/scoring-profiles/mmv-antimalarial-scoring-profile/) based on calculated physicochemical properties, including molecular weight, logP, hydrogen bond donors and acceptors, rotatable bonds, and structural alerts ([20], [21]). We finally chose six representative compounds (A-15, A-33, and A-69, shown in Table S1, and other three compounds; A-126, A-127, and A-128) by manual inspection with “chemist eye” for chemical attractiveness (druglikeness). […] Furthermore, two compounds, A-33 and A-69, are considered to be pan-assay interference compounds (PAINS) (phenolic Mannich base) ([22]). We consequently focused on two commercially available compounds (A-15 and A-127) (Fig. 6A) and investigated their mechanism of inhibition. We differentiated the type of inhibition by Lineweaver-Burk plot with various concentrations of one substrate (dephospho-CoA or ATP), while the other substrate was given in saturating concentrations in kinetic studies (Fig. 5).
FIG 5 Lineweaver-Burk plots showing inhibition of two compounds, compound A-15 (A, B) and compound A-127 (C, D) on the PfDPCK activity. The enzymatic activities were determined with various concentrations of dephospho-CoA and 200 μM ATP (A, C) or various concentrations of ATP and 200 μM dephospho-CoA (B, D) in the presence of a range of concentrations of inhibitors. Data are shown in means ± SEMs of triplicate.
PfDPCK and HsCOASY activity was measured by quantifying ADP produced in the reaction by a coupling assay using the ADP Hunter Plus assay kit (DiscoverX, USA) according to the manufacturer's instructions. Briefly, enzymatic reactions were carried out in a 20-μL mixture of assay buffer containing 15 mM HEPES, 20 mM NaCl, 1 mM EGTA, 0.02% Tween 20, 10 mM MgCl2, 0.1% bovine gamma globulin, 50 ng of recombinant PfDPCK or HsCOASY, 4 to 256 μM dephospho-CoA, and 5 to 300 μM ATP on a black microplate. All reactions were performed for 2 h, reagents A and B were added, and they were then reincubated for 60 min at 30°C. After reactions were terminated by addition of ADP Hunter Stop solution, the fluorescent signal was measured using SpectraMax Paradigm (Molecular Devices, CA, USA) at excitation and emission wavelengths of 530 and 590 nm, respectively. The kinetic parameters were calculated using the nonlinear regression function using the single saturating concentrations of the substrates by the GraphPad Prism software (GraphPad Software Inc., San Diego, CA). The experiments were repeated three times in triplicate using proteins purified from independent cultures. Kinetic values of enzymes are presented as the means ± standard errors (SEs).

The target of assay [3] is T1, PfDPCK. The experiment in a line: PfDPCK inhibition, enzyme-coupled fluorescence ADP detection assay (HTS and IC50 determination). It is filed as biochemical. The conditions noted are these: Table 2, PfDPCK inhibitor scaffolds Gr4, Gr5, Gr8; read-out: IC50. Here is the method:
High-throughput screening against recombinant PfDPCK was performed using the Drug Discovery Initiative (DDI) full library, available from The University of Tokyo, composed of approximately 210,000 compounds. The primary assay was performed on 1,536-well white plate format with a final volume of 2 μL/well, containing 10 μM test compounds using a Multidrop Combi reagent dispenser (Thermo Fisher Scientific, Waltham, MA). The reaction was conducted in the assay buffer described above with 100 μM ATP and 50 μM dephospho-CoA. The assay was carried out at room temperature for 4 h in a closed plastic container with wet tissues. The reaction was stopped, and produced ADP was quantified using an enzyme-coupled fluorescence ADP detection assay, using PHERAstar microplate reader (BMG Labtech, Offenburg, Germany) with excitation at 540 nm and emission at 590 nm, as previously described ([17]). The inhibition level was calculated as the percentage inhibition of DPCK activity with each compound compared to the activity with only dimethyl sulfoxide (DMSO) as control (no inhibition) and that with no enzyme as 100% inhibition. IC50 values of the hit compounds were determined under the same assay conditions for the screening: Z′ factor, signal-to-background ratio (S/B), signal-to-noise ratio (S/N), and coefficient of variation (CV) were calculated to estimate the quality of screening system as previously described ([18], [38]).
The primary hits were reassayed in quadruplicate (n = 4) as in the primary screening. We next tested the confirmed secondary hits to exclude false positives that inhibit coupled fluorescence assay, but not PfDPCK. After exclusion of false positives, all tertiary hits were tested against human HsCOASY in the counterassay to exclude compounds that inhibit both PfDPCK and HsCOASY. The compounds showing >10% inhibition against HsCOASY were excluded from further studies. The IC50 values of the hit compounds were determined under the same assay conditions described as above for the primary screening, with the serially diluted compounds at 20, 10, 2.5, 0.5, and 0.1 μM at final concentrations. The assay was conducted in quadruplicate for each dilution, and IC50 values were calculated using GraphPad Software (San Diego, California USA).

For assay [4], the system named is P. falciparum drug-sensitive 3D7 strain. The experiment in a line: Erythrocytic-stage parasite growth inhibition, diaphorase-coupled LDH assay, 3D7. Type of assay: cell-based, Plasmodium falciparum. The conditions noted are these: Plasmodium falciparum, 3D7; Table S1; means ± SEM; read-out: IC50 (μM) Pf cell 3D7. How it is done: as §1

By IC50 is commonly meant the concentration that gives 50% inhibition. One may read the Ki as a dissociation constant, usually derived from enzyme kinetics or from competition with a known ligand.

T1 sequence (Q8IL34 entry or part of it): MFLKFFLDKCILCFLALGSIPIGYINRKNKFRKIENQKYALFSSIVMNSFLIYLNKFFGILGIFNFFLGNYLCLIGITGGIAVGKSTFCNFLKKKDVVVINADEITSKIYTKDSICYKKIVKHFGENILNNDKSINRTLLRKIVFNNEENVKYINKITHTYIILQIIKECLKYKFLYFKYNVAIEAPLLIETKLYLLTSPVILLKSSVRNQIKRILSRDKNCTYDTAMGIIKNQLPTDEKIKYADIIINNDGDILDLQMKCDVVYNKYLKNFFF

As to `CC(C)(C)c1cc(C(=O)Cn2c(NCCO)nc3ccccc32)cc(C(C)(C)C)c1O` [Compound A-15], the IC50 in assay [1] was found to be 9.26 ± 0.26 µM; at PfDPCK [3] it was 1.93 ± 0.04 µM; in assay [4] it was 9.78 ± 0.23 µM. For the same compound, the Ki at PfDPCK [2] (in respect of ATP, 200 μM dephospho-CoA) was determined as 10.4 µM; at PfDPCK [2] (in respect of dephospho-CoA, 200 μM ATP), 0.47 µM. Besides, the type of inhibition result on PfDPCK [2] (in respect of dephospho-CoA and ATP, Lineweaver-Burk plot) was “competitively inhibits; also recorded: competitive inhibition”.
